Laboratory results from ChEMBL document CHEMBL1201862, “PubChem BioAssay data set” (2004).
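Following 48 hours of exposure in 96-well plates, responses at five concentrations were used to interpolate endpoints linearly. The concentration for 50% growth inhibition is given as GI50.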 Activity calls are given as the source filed them. No stated cut-off is given here; in the data, active = GI50 up to about 1.1 µM and inactive = higher.

Key:
Assay in all cases: NCI tumour cell line growth inhibition, 48 h
[1] = system: DLD-1
[2] = system: LXFL 529
[3] = system: M19-MEL
[4] = system: DMS-114
[5] = system: HOP-18
[6] = system: XF498
[7] = system: DMS-273
[8] = system: KM-20L2
[9] = system: RXF 631

Structure (SMILES)	GI50 [1]	GI50 [2]	GI50 [3]	GI50 [4]	GI50 [5]	GI50 [6]	GI50 [7]	GI50 [8]	GI50 [9]
O=C1C2Nc3ccccc3SC2C(=O)N1c1ccccc1C(F)(F)F (stereo unspecified)	27.3 µM (inactive)	33.7 µM (inactive)	46.9 µM (inactive)	40.7 µM (inactive)	26.4 µM (inactive)	19.6 µM (inactive)	–	–	–
Cn1cc2c(n1)c(N/N=C/c1ccccc1)nn1nnnc21	> 100 µM (inactive)	> 100 µM (inactive)	> 100 µM (inactive)	> 100 µM (inactive)	> 100 µM (inactive)	> 100 µM (inactive)	> 100 µM (inactive)	> 100 µM (inactive)	> 100 µM (inactive)
C/C(=N/NC(N)=S)C(CN1CCOCC1)C(C1=C(O)c2ccccc2OC1)c1ccccc1 (stereo unspecified)	> 100 µM (inactive)	> 100 µM (inactive)	> 100 µM (inactive)	–	> 100 µM (inactive)	> 100 µM (inactive)	–	> 100 µM (inactive)	–
CC(=O)OC1[C@H]2c3cc4c(cc3CN3CCC(C[C@@H]1OC(C)=O)C23)OCO4 (stereo partly specified)	> 75 µM (inactive)	> 75 µM (inactive)	> 75 µM (inactive)	> 75 µM (inactive)	–	–	> 75 µM (inactive)	> 75 µM (inactive)	–
COc1ccc(NCC#N)cc1	> 100 µM (inactive)	> 100 µM (inactive)	> 100 µM (inactive)	> 100 µM (inactive)	> 100 µM (inactive)	> 100 µM (inactive)	> 100 µM (inactive)	> 100 µM (inactive)	> 100 µM (inactive)
CSC(C1c2ccccc2N(C)c2[nH]c(=O)n(C)c(=O)c21)S(=O)(=O)c1ccc(C)cc1 (stereo unspecified)	> 100 µM (inactive)	56.4 µM (inactive)	40.3 µM (inactive)	> 100 µM (inactive)	> 100 µM (inactive)	> 100 µM (inactive)	43.5 µM (inactive)	–	–
O=C(CSc1nnc(Cc2ccccc2)o1)Nc1ccc([N+](=O)[O-])cc1	> 100 µM (inactive)	78.2 µM (inactive)	> 100 µM (inactive)	22.4 µM (inactive)	–	–	> 100 µM (inactive)	> 100 µM (inactive)	–
CC1(C)OC(=O)C(C#N)=C1/C=C/c1coc2ccc(Cl)cc2c1=O	23.1 µM (inactive)	27.9 µM (inactive)	41.2 µM (inactive)	34.8 µM (inactive)	–	–	35.1 µM (inactive)	42.2 µM (inactive)	38.8 µM (inactive)
Fc1cccc(F)c1C1SCc2nc3ccccc3n21 (stereo unspecified) [THIAZOLOBENZIMIDAZOLE]	> 100 µM (inactive)	60.4 µM (inactive)	44.9 µM (inactive)	–	53.6 µM (inactive)	52 µM (inactive)	50.2 µM (inactive)	> 100 µM (inactive)	–
COc1cccc(NC(=O)CC(=O)N2NC(c3ccccc3)C(/N=N/c3cccc(C(=O)O)c3)C2=O)c1 (stereo unspecified)	> 100 µM (inactive)	85.1 µM (inactive)	> 100 µM (inactive)	> 100 µM (inactive)	< 0.01 µM (active)	> 100 µM (inactive)	–	> 100 µM (inactive)	–
N=C(N)N/N=C(/c1nc2ccc([N+](=O)[O-])cc2[nH]c1=O)C(O)c1ccc([N+](=O)[O-])cc1 (stereo unspecified)	87.3 µM (inactive)	30.8 µM (inactive)	> 100 µM (inactive)	8.28 µM (inactive)	–	40 µM (inactive)	55.7 µM (inactive)	18 µM (inactive)	> 100 µM (inactive)
O=C(Nc1ccc(Cl)c(C(F)(F)F)c1)C(=O)C(C(=O)/C=C/c1ccccc1)C1OC(=O)c2ccccc21 (stereo unspecified)	> 100 µM (inactive)	57.4 µM (inactive)	84.9 µM (inactive)	66.5 µM (inactive)	> 100 µM (inactive)	> 100 µM (inactive)	> 100 µM (inactive)	> 100 µM (inactive)	–
COC(=O)/C=C1\CCC2[C@@H](C(=O)CC3[C@]2(C)CCC[C@@]3(C)C(=O)OC)C1C (stereo partly specified)	29.2 µM (inactive)	8.73 µM (inactive)	19.2 µM (inactive)	16.1 µM (inactive)	29.4 µM (inactive)	13.7 µM (inactive)	22 µM (inactive)	29.3 µM (inactive)	25.4 µM (inactive)
CCN(CC)CCC(=O)O[C@H]1CC[C@H](CC(C)[C@H]2CC(=O)C(C)C=C(C)[C@H](OC(=O)CCN(CC)CC)C(OC)C(=O)[C@@H](C)CC(C)/C=C/C=C/C=C(C)C(OC)CC3CC[C@H](C)[C@](O)(O3)C(=O)C(=O)N3CCCCC3C(=O)O2)CC1OC (stereo partly specified)	–	< 0.01 µM (active)	–	–	–	–	0.361 µM (active)	1.6 µM (inactive)	0.406 µM (active)
O=C1[C@@H]2C(c3ccccc3[N+](=O)[O-])=[N+](c3ccccc3)O[C@@H]2C(=O)N1c1ccc(Cc2ccc(N3C(=O)[C@H]4C(c5ccccc5[N+](=O)[O-])=[N+](c5ccccc5)O[C@H]4C3=O)cc2)cc1	> 100 µM (inactive)	94.6 µM (inactive)	> 100 µM (inactive)	> 100 µM (inactive)	85.9 µM (inactive)	–	> 100 µM (inactive)	> 100 µM (inactive)	–
O=[N+]([O-])c1ccc(Cc2nc3ccccc3s2)cc1	41.6 µM (inactive)	61 µM (inactive)	71.3 µM (inactive)	39.5 µM (inactive)	> 100 µM (inactive)	> 100 µM (inactive)	82.4 µM (inactive)	> 100 µM (inactive)	–
CS/C(=C(\S)c1ccccc1)c1ccccc1	> 100 µM (inactive)	> 100 µM (inactive)	> 100 µM (inactive)	> 100 µM (inactive)	> 100 µM (inactive)	> 100 µM (inactive)	> 100 µM (inactive)	> 31.6 µM (inactive)	> 100 µM (inactive)
O=c1c2ccccc2nc(-c2ccccc2)n1NC(=S)Nc1cccc(Cl)c1	> 100 µM (inactive)	> 100 µM (inactive)	> 100 µM (inactive)	67.3 µM (inactive)	> 100 µM (inactive)	–	66.4 µM (inactive)	–	–
O/N=N/c1cnccn1	> 1250 µM (inactive)	–	> 1250 µM (inactive)	929 µM (inactive)	> 1250 µM (inactive)	–	> 1250 µM (inactive)	> 1250 µM (inactive)	–
O=[N+]([O-])c1ccc(-c2ccc(-c3csc(Nc4ccccc4)n3)o2)cc1	23.3 µM (inactive)	18.6 µM (inactive)	29.9 µM (inactive)	25.7 µM (inactive)	15.8 µM (inactive)	18.4 µM (inactive)	23 µM (inactive)	21 µM (inactive)	–
O=C(/C=N/c1ccccc1C(=O)[O-])c1cccs1.O=C(/C=N/c1ccccc1C(=O)[O-])c1cccs1.[Zn+2]	39.9 µM (inactive)	–	–	–	> 100 µM (inactive)	–	> 100 µM (inactive)	> 100 µM (inactive)	–
c1ccc(N2CCN(CCN3CCc4c([nH]c5ccccc45)C3c3cccnc3)CC2)cc1 (stereo unspecified)	> 100 µM (inactive)	> 100 µM (inactive)	> 100 µM (inactive)	> 100 µM (inactive)	> 100 µM (inactive)	89.9 µM (inactive)	> 100 µM (inactive)	> 100 µM (inactive)	39.5 µM (inactive)
